Measurements taken from BindingDB's records for PubMed 11714892 (Recordati, 2001).

Assays:
[1] = target: T1, 5-hydroxytryptamine receptor 1A (Rattus norvegicus, UniProt P19327)
T1 sequence (P19327 whole entry): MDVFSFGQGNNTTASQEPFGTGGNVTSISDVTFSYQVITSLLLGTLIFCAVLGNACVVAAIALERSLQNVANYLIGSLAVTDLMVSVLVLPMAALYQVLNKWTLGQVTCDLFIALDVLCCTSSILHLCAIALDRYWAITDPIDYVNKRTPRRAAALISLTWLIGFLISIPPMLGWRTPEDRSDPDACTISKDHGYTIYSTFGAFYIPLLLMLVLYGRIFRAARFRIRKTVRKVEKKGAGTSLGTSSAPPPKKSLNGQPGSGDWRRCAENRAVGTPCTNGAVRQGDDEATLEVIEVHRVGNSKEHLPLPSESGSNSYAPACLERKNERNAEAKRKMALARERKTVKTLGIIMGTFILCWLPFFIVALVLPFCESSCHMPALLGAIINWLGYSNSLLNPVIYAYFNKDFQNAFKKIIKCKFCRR

[2] = target: T2, Alpha-1A adrenergic receptor (Homo sapiens, UniProt P35348)
T2 sequence (P35348 whole entry): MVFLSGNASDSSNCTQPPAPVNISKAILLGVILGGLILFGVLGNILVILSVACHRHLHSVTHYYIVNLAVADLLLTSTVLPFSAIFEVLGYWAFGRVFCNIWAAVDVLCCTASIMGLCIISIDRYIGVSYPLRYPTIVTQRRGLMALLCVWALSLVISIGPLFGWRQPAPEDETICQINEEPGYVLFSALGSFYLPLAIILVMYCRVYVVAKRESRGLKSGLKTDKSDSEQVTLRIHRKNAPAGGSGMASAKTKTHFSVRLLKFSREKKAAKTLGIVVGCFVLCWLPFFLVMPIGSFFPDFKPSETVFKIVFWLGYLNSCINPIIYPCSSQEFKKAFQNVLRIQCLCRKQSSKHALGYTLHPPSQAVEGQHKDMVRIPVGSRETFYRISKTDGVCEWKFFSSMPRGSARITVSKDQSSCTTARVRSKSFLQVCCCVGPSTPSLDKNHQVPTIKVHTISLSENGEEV

[3] = target: T3, Alpha-1B adrenergic receptor (Homo sapiens, UniProt P35368)
T3 sequence (P35368 whole entry): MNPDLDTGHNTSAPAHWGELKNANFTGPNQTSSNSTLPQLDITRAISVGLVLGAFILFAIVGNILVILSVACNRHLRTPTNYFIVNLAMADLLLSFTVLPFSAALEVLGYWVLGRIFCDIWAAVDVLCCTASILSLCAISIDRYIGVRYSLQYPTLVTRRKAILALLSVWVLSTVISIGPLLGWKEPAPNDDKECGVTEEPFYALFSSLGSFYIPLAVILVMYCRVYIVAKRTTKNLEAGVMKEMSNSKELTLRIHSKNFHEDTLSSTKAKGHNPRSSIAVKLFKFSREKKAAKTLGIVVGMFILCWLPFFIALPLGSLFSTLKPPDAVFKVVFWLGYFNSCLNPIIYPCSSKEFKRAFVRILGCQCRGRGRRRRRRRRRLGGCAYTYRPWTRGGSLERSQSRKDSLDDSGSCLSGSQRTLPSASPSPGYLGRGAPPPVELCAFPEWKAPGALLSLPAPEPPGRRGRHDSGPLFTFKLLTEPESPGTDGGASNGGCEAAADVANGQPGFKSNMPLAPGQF

[4] = target: T4, Alpha-1D adrenergic receptor (Homo sapiens, UniProt P25100)
T4 sequence (P25100 whole entry): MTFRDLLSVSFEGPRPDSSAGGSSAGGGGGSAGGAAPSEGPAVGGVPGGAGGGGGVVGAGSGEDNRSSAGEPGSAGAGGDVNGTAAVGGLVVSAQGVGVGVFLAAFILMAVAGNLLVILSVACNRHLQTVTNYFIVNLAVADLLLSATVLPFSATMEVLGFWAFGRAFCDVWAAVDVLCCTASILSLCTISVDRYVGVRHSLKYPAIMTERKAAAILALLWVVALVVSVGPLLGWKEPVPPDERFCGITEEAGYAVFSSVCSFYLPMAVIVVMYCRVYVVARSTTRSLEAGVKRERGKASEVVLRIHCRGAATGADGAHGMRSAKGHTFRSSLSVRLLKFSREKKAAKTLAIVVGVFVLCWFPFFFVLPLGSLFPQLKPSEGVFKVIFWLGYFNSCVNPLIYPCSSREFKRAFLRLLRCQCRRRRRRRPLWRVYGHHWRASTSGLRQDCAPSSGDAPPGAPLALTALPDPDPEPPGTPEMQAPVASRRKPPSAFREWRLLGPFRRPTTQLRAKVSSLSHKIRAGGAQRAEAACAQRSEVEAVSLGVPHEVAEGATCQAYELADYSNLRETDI

Ki [1]: 0.0007 µM
Ki [2]: 0.081 µM
Ki [3]: 0.105 µM
Ki [4]: 0.0057 µM
Structure (SMILES): COc1ccccc1N1CCN(CCN(C(=O)C2CCCCC2)c2ccccc2[N+](=O)[O-])CC1 [N-[2-[4-(2-methoxyphenyl)-1-piperazinyl]-ethyl]-N-(2-nitrophenyl)cyclohexanecarboxamide]
